Laboratory results as given in US10857153B2, “Pyrimidine compounds containing acidic groups” (Apros Therapeutics, Inc., priority 2018, dated 2020).

Key:
human TLR7 = target: T1, human TLR7 (Homo sapiens, UniProt Q9NYK1); assay: HEK-TLR7 assay (HEK-Blue hTLR7 cells, SEAP reporter); type: cell-based; details: 16 h
T1 construct: host or cells: HEK293 (HEK-Blue™ hTLR7)
T1 sequence (Q9NYK1 27-1049): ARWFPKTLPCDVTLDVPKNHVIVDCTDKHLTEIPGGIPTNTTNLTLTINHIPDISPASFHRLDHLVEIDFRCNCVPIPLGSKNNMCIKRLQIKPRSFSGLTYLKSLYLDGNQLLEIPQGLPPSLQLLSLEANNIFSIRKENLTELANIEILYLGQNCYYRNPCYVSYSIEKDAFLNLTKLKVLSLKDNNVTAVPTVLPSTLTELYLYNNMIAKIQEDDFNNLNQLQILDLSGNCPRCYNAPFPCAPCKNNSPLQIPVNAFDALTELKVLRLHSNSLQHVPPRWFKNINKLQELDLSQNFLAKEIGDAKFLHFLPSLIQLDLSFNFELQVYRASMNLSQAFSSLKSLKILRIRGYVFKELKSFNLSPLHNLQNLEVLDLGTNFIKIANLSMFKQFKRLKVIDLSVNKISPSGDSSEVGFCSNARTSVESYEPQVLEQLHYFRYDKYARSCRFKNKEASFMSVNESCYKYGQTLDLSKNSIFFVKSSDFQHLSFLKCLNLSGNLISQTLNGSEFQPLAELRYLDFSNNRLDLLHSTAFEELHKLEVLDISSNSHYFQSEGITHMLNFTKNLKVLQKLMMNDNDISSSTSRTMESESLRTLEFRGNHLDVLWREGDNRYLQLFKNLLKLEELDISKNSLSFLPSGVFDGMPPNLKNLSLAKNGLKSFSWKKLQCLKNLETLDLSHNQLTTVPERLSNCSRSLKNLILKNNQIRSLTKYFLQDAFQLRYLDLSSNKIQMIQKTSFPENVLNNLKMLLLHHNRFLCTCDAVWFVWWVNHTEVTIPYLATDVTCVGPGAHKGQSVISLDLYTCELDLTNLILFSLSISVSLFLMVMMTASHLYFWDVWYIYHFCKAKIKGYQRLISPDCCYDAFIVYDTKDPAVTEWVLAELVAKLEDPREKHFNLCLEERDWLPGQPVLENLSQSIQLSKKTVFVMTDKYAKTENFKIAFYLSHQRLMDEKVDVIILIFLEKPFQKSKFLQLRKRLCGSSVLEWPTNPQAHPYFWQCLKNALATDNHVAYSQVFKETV
Excerpt: HEK-Blue™ TLR7 cells were purchased from Invivogen (San Diego, Calif.). The following description was taken from the product information sheet.
“HEK-Blue™ hTLR7 cells are designed for studying the stimulation of human TLR7 (hTLR7) by monitoring the activation of NF-kB. HEK-Blue™ hTLR7 cells were obtained by co-transfection of the hTLR7 gene and an optimized secreted embryonic alkaline phosphatase (SEAP) reporter gene into HEK293 cells. The SEAP reporter gene is placed under the control of the IFN-b minimal promoter fused to five NF-kB and AP-1-binding sites. Stimulation with a TLR7 ligand activates NF-kB and AP-1 which induce the production of SEAP, which is detected by the HEK-Blue™ Detection cell culture medium.”
A typical assay protocol involved the following steps: • 1. Cells were cultured according to the product information sheet. • 2. 10 mM compound stock in DMSO were first diluted to 3 mM and then 3-fold serially diluted using DMSO to afford a 10-pt dilution. • 3. 3 μl of the diluted DMSO were added to 57 μl HEK-Blue™ Detection media for a further 20-fold dilution. • 4. 10 μl of the diluted compound in assay media were added into 40 μl cell culture (in HEK-Blue™ Detection media) in 384-well plate. Final cell concentration=8,000 cells per well. • 5. The plates were incubated at 37° C. in 5% CO2 for 16 h. SEAP was determined using a spectrophotometer at 620-655 nm.

[1] = system: CT26 cells stably expressing luciferase; assay: CT26 metastatic lung cancer model; details: for median survival time: intranasal, in combination with anti-PD-L1, twice a week, 8 doses; for mean bioluminescence (tumor burden) versus anti-PD-L1 or anti-PD-L1 with Compound 50 or AZD8848: in combination with anti-PD-L1, for more than 20 days after injection of tumor cells
Description: To establish a lung cancer model, 5e5 CT26 cells stably expressing luciferase (Imanis Life Sciences) were injected intravenously into female Balb/c mice on Day 0. On Day 4 post challenge, mice were anesthetized and subjected to whole body bioluminescent imaging (IVIS; Perkin Elmer) to determine tumor burden and in vivo location. Mice with detectable lung tumors were enrolled into the study and randomized such that the average bioluminescence and variance is equivalent amongst all of the study groups. Animals were dosed twice a week for a total of 8 doses with the indicated treatments, and imaged weekly to determine total tumor burden over the course of the treatment.
The known TLR7 compound AZD8848 was used as a comparator and administered in combination with anti-PD-L1 to the mice. […] Each treatment group contained 10 mice.

TLR7 = assay: Pharmacodynamic experiment: serum IP-10 after intranasal dosing; type: in vivo; details: BALB/c mice, 60 micrograms intranasally, 5 hours
Description: IP-10 is a biomarker of TLR7 target activation. Higher production levels of IP-10 is an indication of higher target engagement in vivo. In this study, 3 BALB/c mice per group were dosed intranasally with 60 micrograms of Compound 1B, 2B, 3B, Compound 50 or AZD8848. The test compounds were formulated as a 1 mg/mL solution in 0.5% carboxy methycellulose. Animals were sacrificed after 5 hours. Serum IP-10 concentrations were measured using a commercial ELISA kit purchased from Meso Scale Discovery.

[2] = Formulation preparation and solubility examination; type: physicochemical; details: 1 mg/mL in 0.5% carboxy methycellulose in water, pH 6-7
Description: The resulting formulations were vortexed and stored at 4° C. before dosing.

SMILES: CCCCOc1nc(N)c2[nH]c(=O)n(CCCN(CCCN3CCOCC3)Cc3cccc(CC(=O)OC)c3)c2n1 [AZD8848, reference compound]
- EC50 (human TLR7): 37 nM
- median survival time [1]: 23 days
- mean serum IP-10 concentration (TLR7): 96 pg/mL
- appearance of formulation (solubility) [2]: turbid suspension

SMILES: CCCC[C@@H](CCS(C)(=O)=O)Nc1nc(N)nc(CCC(=O)O)c1Cc1cc(Cc2nn[nH]n2)ccc1OC [Compound 1B, (S)-3-(5-(5-((2H-tetrazol-5-yl)methyl)-2-methoxybenzyl)-2-amino-6-((1-(methyl-sulfonyl)heptan-3-yl)amino)pyrimidin-4-yl)propanoic acid]
- EC50 (human TLR7): 230 nM
- mean bioluminescence (tumor burden) versus anti-PD-L1 or anti-PD-L1 with Compound 50 or AZD8848 [1]: lower
- median survival time [1]: 36 days
- mean serum IP-10 concentration (TLR7): about 700 pg/mL

SMILES: CCCC[C@@H](CCO)Nc1nc(N)nc(CCC(=O)O)c1Cc1cc(CC(=O)O)ccc1OC [Compound 2B, (S)-3-(2-amino-5-(5-(carboxymethyl)-2-methoxybenzyl) -6-((1-hydroxyheptan-3-yl)amino)pyrimidin-4-yl)propanoic acid]
- EC50 (human TLR7): 270 nM
- mean bioluminescence (tumor burden) versus anti-PD-L1 or anti-PD-L1 with Compound 50 or AZD8848 [1]: lower
- median survival time [1]: 32 days
- mean serum IP-10 concentration (TLR7): ~150 pg/mL

SMILES: CCCC[C@@H](CCO)Nc1nc(N)nc(CCC(=O)O)c1Cc1cc(Cc2nn[nH]n2)ccc1OC [Compound 3B, (S)-3-(5-(5-((2H-tetrazol-5-yl)methyl)-2-methoxybenzyl)-2-amino-6-((1-hydroxyheptan-3-yl)amino)pyrimidin-4-yl)propanoic acid]
- EC50 (human TLR7): 270 nM
- mean bioluminescence (tumor burden) versus anti-PD-L1 or anti-PD-L1 with Compound 50 or AZD8848 [1]: lower
- median survival time [1]: 36 days
- mean serum IP-10 concentration (TLR7): ~1300 pg/mL

SMILES: CCCC[C@@H](CCS(C)(=O)=O)Nc1nc(N)nc(CCC(=O)O)c1Cc1cc(CC(=O)O)ccc1OC [Compound 50, reference compound]
- EC50 (human TLR7): 260 nM
- median survival time [1]: 29 days
- mean serum IP-10 concentration (TLR7): 125 pg/mL
- appearance of formulation (solubility) [2]: clear
